Columns and labels:
[1] = system: Colo205-LUC-TCF/LEF M1 reporter cell line (Wnt pathway); test: Colo205-LUC-TCF/LEF M1 reporter gene (luciferase) inhibition; type: cell-based; conditions: 4 hours incubation, luciferase readout
How it was run: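 Luminescent readout of TCF/LEF-regulated luciferase after a 4 h, 37° C compound exposure in a stable Colo205 reporter clone (10,000 cells/well). Serial 3-fold dilutions started at 20 uM; IC50 derived using DMSO-treated cells and no-cell wells as controls.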

Colo205 = test: Proliferation inhibition, Wnt mutant cell line Colo205; type: cell-based; conditions: Homo sapiens, COLO 205; Colo205, Wnt pathway-dependent, 96 hours; read-out: Antiproliferative IC50 Colo205
How it was run: (§1)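 1000 cells/well, 37° C/5% CO2, 20-24 h attach; 3-fold serial dilution, max final 20 uM; 96 h exposure. Promega viability readout, full wavelength mode. DMSO wells = positive ctrl, no-cell wells = negative ctrl; IC50 reported.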

RKO = test: Proliferation inhibition, non-Wnt mutant control cell line RKO; type: cell-based; conditions: Homo sapiens, Wnt-independent control cell line, 96 hours, read-out: Antiproliferative IC50 RKO
How it was run: as §1

DU4475 = test: Proliferation inhibition, Wnt mutant cell line DU4475; type: cell-based; conditions: Homo sapiens, DU-4475; DU4475, Wnt pathway-dependent, 96 hours; read-out: Antiproliferative IC50 DU4475
How it was run: as §1

Hela = test: Proliferation inhibition, non-Wnt mutant control cell line Hela; type: cell-based; conditions: Homo sapiens, Wnt-independent control cell line, 96 hours, read-out: Antiproliferative IC50 Hela
Text: The cell lines used in the experiment are Colo205 and DU4475 cell lines whose Wnt pathway is continuously activated and whose proliferation is Wnt pathway-dependent; while the BELA and RKO cell lines, whose Wnt pathway is not activated under normal circumstances and the proliferation is independent of Wnt pathway, as control cell lines. It is Judged that the inhibitory effect of the compound of the present invention on Wnt-dependent proliferation is not caused by other non-specific toxicity.
Treat the Colo205, Du4475, HELA and RKO cell lines cultured in their respective mediums in the logarithmic growth phase, collect the cells and prepare a uniform cell suspension of known concentration, and then add it to the 96-well cell culture plate Cell suspension, so that each well contains 1000 cells. Put it into a 5% CO2 incubator and incubate at 37° C. for 20-24 h. On the second day, the fully dissolved, 3-fold serially diluted compound was added to each cell culture well, so that the final maximum concentration in the cell culture well was 20 uM, and the culture was continued for 96 hours. In this test, Promega's cell viability detection test is used for detection. The more the cells proliferate, the stronger the final signal intensity will be. The detection instrument is SpectraMax, full wavelength mode. The wells only added with DMSO were used as positive control wells, and the wells that were not inoculated with cells were used as negative control wells. […] The IC50 value of cell proliferation inhibition was used to evaluate the inhibitory effect of the compound on the Wnt pathway and the toxic effect on normal cells (Table 2).

NCI-H929 = test: Proliferation inhibition, NCI-H929 cell line; type: cell-based, human; conditions: Homo sapiens; NCI-H929 cells, 96 hours culture, cell viability detection; read-out: Antiproliferative IC50 NCI-H929
Text: The cell lines used in the test are NCI-H929 and HepG2 cell lines whose Wnt pathway is continuously activated and whose proliferation is Wnt pathway-dependent; the inhibitory effect of the compound of the present invention on Wnt-dependent proliferation is judged.
Treat the NCI-H929 and HepG2 cell lines cultured in their respective mediums in the logarithmic growth phase, collect the cells and prepare a uniform cell suspension of known concentration, and then add the cell suspension to the 96-well cell culture plate solution so that each well contains 4000 cells. Put it into a […] incubator and incubate at 37° C. for 20-24 h. On the second day, the fully dissolved, 3-fold serially diluted compound was added to each cell culture well, so that the final maximum concentration in the cell culture well was 20 uM, and the culture was continued for 96 hours. In this test, Promega's cell viability detection test is used for detection. The more the cells proliferate, the stronger the final signal intensity will be. The detection instrument is SpectraMax, full wavelength mode. The wells only added with DMSO were used as positive control wells, and the wells that were not inoculated with cells were used as negative control wells. […] The IC50 value of cell proliferation inhibition was used to evaluate the inhibitory effect of the compound on the Wnt pathway and the toxic effect on normal cells (Table 3).

HepG2 = test: Proliferation inhibition, HepG2 cell line; type: cell-based; conditions: Homo sapiens; HepG2 cells, 96 hours culture, cell viability detection; read-out: Antiproliferative IC50 HepG2
How it was run: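 Wnt-dependent proliferation in HepG2 and NCI-H929 cells, seeded at 4000 cells/well and pre-incubated 20-24 h at 37 °C. Cells were then exposed for 96 h to 3-fold serial dilutions (top final concentration 20 uM), and viability was read by signal intensity. IC50 was referenced to DMSO-only wells and cell-free wells.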

Structure (SMILES)	IC50 [1]	IC50 (Colo205)	IC50 (Hela)	IC50 (NCI-H929)	IC50 (HepG2)	IC50 (RKO)	IC50 (DU4475)
C[C@H]1Cn2ccc3nc(NCc4ccc(Oc5ccc(C(F)(F)F)nc5)nc4)nc(c32)N1C [77 (W86)]	8 nM	4.7 nM	2920 nM	–	–	4010 nM	5.1 nM
C[C@H]1Cn2ccc3nc(NCc4ccc(OCCOCC(F)(F)F)nc4)nc(c32)N1C [79 (W95)]	20 nM	43.9 nM	3670 nM	–	–	6890 nM	23.7 nM
CN1c2nc(NCc3cnn(CC(F)(F)F)c3)nc3ccn(c23)CC1(C)C [84 (W123)]	17 nM	41 nM	4760 nM	–	–	5540 nM	36 nM
COC[C@H]1Cn2ccc3nc(NCc4ccc(C(F)(F)F)nc4)nc(c32)N1C [86 (W135)]	38 nM	79 nM	> 10000 nM	–	–	> 10000 nM	–
C[C@H]1C(=O)N2CCCc3nc(NCc4ccc(Cn5ccc(C(F)(F)F)n5)nc4)nc(c32)N1C [92 (W232)]	–	81 nM	> 10000 nM	–	–	> 10000 nM	80 nM
C[C@H]1C(=O)N2CCCc3nc(NCc4cnn(CCCC(F)(F)F)c4)nc(c32)N1C [93 (W223)]	–	89 nM	> 10000 nM	–	–	> 10000 nM	79 nM
C[C@H]1C(=O)N2CCCc3nc(NCc4ccc(Oc5cncc(C(F)(F)F)c5)nc4)nc(c32)N1C [99 (W193)]	27 nM	12 nM	> 10000 nM	–	–	> 10000 nM	21 nM
C[C@H]1C(=O)N2CCCc3nc(NCc4ccc(Oc5ccnc(C(F)(F)F)c5)nc4)nc(c32)N1C [100 (W239)]	50 nM	59 nM	> 10000 nM	–	–	> 10000 nM	52 nM
C[C@H]1C(=O)N2CCCc3nc(NCc4ccc(Oc5ccc(C(F)(F)F)nc5)cc4)nc(c32)N1C [101 (W213)]	47 nM	86 nM	6980 nM	–	–	3930 nM	73 nM
[2H]C([2H])([2H])N1c2nc(NCc3ccc(Oc4cnc(C(F)(F)F)nc4)nc3)nc3c2N(CCC3)C(=O)[C@@H]1COC [178 (W333)]	39 nM	19.2 nM	–	60 nM	23 nM	> 10000 nM	13.7 nM
CN1c2nc(NCc3ccc(Oc4ccc(C(F)(F)F)nc4)nc3)nc3c2N(CCC3)C(=O)[C@@H]1CC(F)(F)F [190 (W317)]	11 nM	7.9 nM	–	6.4 nM	2.1 nM	> 10000 nM	< 0.5 nM
[2H]C([2H])([2H])N1c2nc(NCc3ccc(Oc4cnc(C(F)(F)F)nc4)nc3)nc3c2N(CCC3)C(=O)[C@@H]1CC(F)(F)F [193 (W342)]	4 nM	1.4 nM	–	24 nM	1.2 nM	> 10000 nM	< 0.5 nM
[2H]C([2H])([2H])N1c2nc(NCc3ccc(Oc4ccc(C(F)(F)F)nc4)nc3)nc3c2N(CCC3)C(=O)[C@@H]1CC(F)(F)F [196 (W344)]	7 nM	1.4 nM	–	54 nM	1.2 nM	> 10000 nM	< 0.5 nM
CN1c2nc(NCc3ccc(Oc4cnc(C(F)(F)F)nc4)nc3)nc3c2N(CCC3)C(=O)[C@@H]1CC(F)(F)F [199 (W319)]	9 nM	6.9 nM	–	28 nM	2 nM	> 10000 nM	< 0.5 nM

Now from value to compound, other results behind:

IC50 [1]	IC50 (Colo205)	IC50 (Hela)	IC50 (NCI-H929)	IC50 (HepG2)	Structure (SMILES)	IC50 (RKO)	IC50 (DU4475)
2 nM	5.5 nM	4170 nM	–	–	C[C@H]1Cn2ccc3nc(NCc4cnn(Cc5ccc(F)cc5)c4)nc(c32)N1C [61 (W2)]	3440 nM	11.8 nM
14 nM	13.3 nM	7200 nM	–	–	C[C@H]1Cn2ccc3nc(NCc4cnn(Cc5ccc(F)cc5)c4)nc(c32)N1CCO [62 (W13)]	6540 nM	13.5 nM
23 nM	14.6 nM	2590 nM	–	–	C[C@H]1CCn2ccc3nc(NCc4cnn(Cc5ccc(F)cc5)c4)nc(c32)N1C [63 (W22)]	3040 nM	36.3 nM
20 nM	43.5 nM	3490 nM	–	–	Cc1cn2c3c(nc(NCc4cnn(Cc5ccc(F)cc5)c4)nc13)N(C)[C@@H](C)C2 [65 (W32)]	1720 nM	41.7 nM
34 nM	60.4 nM	1090 nM	–	–	C[C@H]1Cn2ccc3nc(NCc4ccc(Oc5ccccc5)cc4)nc(c32)N1C [67 (W46)]	1180 nM	62.5 nM
12 nM	13.1 nM	1410 nM	–	–	C[C@H]1Cn2ccc3nc(NCc4cnn(Cc5ccc(C(F)(F)F)nc5)c4)nc(c32)N1CC(F)(F)F [70 (W55)]	1730 nM	13.1 nM
20 nM	13.5 nM	> 10000 nM	–	–	CN1c2nc(NCc3cnn(Cc4ccc(C(F)(F)F)nc4)c3)nc3ccn(c23)C[C@@H]1CO [71 (W56)]	> 10000 nM	16.7 nM
7 nM	4.8 nM	> 10000 nM	–	–	[2H]c1cc2nc(NCc3cnn(Cc4ccc(C(F)(F)F)nc4)c3)nc3c2n1C[C@H](C)N3C [72 (W57)]	3230 nM	2.8 nM
10 nM	39 nM	5510 nM	–	–	C[C@H]1Cn2ccc3nc(NCc4ccc(OCc5ccccc5)cc4)nc(c32)N1C [74 (W69)]	1690 nM	46 nM
15 nM	9.2 nM	3860 nM	–	–	CN1c2nc(NCc3cnn(Cc4ccc(C(F)(F)F)nc4)c3)nc3ccn(c23)C[C@@H]1C1CC1 [75 (W77)]	4260 nM	6.7 nM
28 nM	27.8 nM	914 nM	–	–	C[C@H]1Cn2ccc3nc(NCc4ccc(Oc5ccc(C(F)(F)F)nc5)cc4)nc(c32)N1C [78 (W87)]	1420 nM	26.3 nM
17 nM	33.4 nM	> 10000 nM	–	–	C[C@H]1Cn2ccc3nc(NCc4cnn(CCCC(F)(F)F)c4)nc(c32)N1C [81 (W105)]	> 10000 nM	19.3 nM
10 nM	5.1 nM	4900 nM	–	–	C[C@H]1Cn2ccc3nc(NCc4cnn(CC5CCC(F)(F)CC5)c4)nc(c32)N1C [83 (W116)]	7470 nM	5.1 nM
7 nM	6.7 nM	2920 nM	–	–	CN1c2nc(NCc3cnn(Cc4ccc(C(F)(F)F)nc4)c3)nc3ccn(c23)CC1CC(F)(F)F (stereo not drawn) [87 (W136)]	3980 nM	5.4 nM
22 nM	–	> 10000 nM	–	–	COC[C@H]1[C@@H](C)n2ccc3nc(NCc4cnn(Cc5ccc(C(F)(F)F)nc5)c4)nc(c32)N1C [88 (W140)]	> 10000 nM	–
24 nM	42 nM	> 10000 nM	–	–	C[C@H]1CN(C2CC2)c2nc(NCc3cnn(Cc4ccc(C(F)(F)F)nc4)c3)nc3ccn1c23 [90 (W152)]	5660 nM	37 nM
